US12428413B2 (CHDI Foundation, Inc., priority 2019, dated 2025)
pIC50: −log10 of the molar value. Like-named read-outs stand apart in the source and are kept apart here.

Experiments:
[1] = tested on: cellular ROCK activity (cofilin phosphorylation at Ser3) in A7r5 rat smooth muscle cells; experiment: Cellular ROCK activity: cofilin (Ser3) phosphorylation, In-Cell Western assay; assay type: cell-based; conditions: Rattus norvegicus, 1 hour compound incubation, phospho-cofilin (Ser3), read-out: CELL_IC50
Experimental: The potency of Rho-associated protein kinase (ROCK) inhibitors was quantified by measuring cofilin phosphorylation levels at Serine 3 (Ser3) as a measure of cellular ROCK activity by In-Cell Western assay. […] The assay plate was imaged and quantified on the Odyssey imager (LICOR Biosciences).
ROCK inhibitor compound plate preparation. […] Stock compounds and control are added directly to ECHO plate (Labcyte) by Janus.
A7r5 cell culture and plating. A7r5 cells were cultured according to standard cell culture protocols in A7r5 growth media (DMEM with Glutamax and 10% FBS). […] 45 μl of re-suspended A7r5 cells were plated at 3000 cells/well in a sterile, μclear, black, F-bottom, 384-well microplate (Greiner bio-one). Seeded cells allowed to settle in wells on the bench for 1 hour before incubation at 37° C., 5% CO2 overnight.
Assay reagent and antibody preparations. Wash buffer was prepared by addition of Tween-20 to Dulbecco's Phosphate Buffered Saline (DPBS) (1×) without calcium and magnesium to make 1% Tween-20 as final concentration. Blocking buffer was prepared by addition of TritonX-100 to SeaBlock buffer (ThermoFisher) to make 0.3% TritonX-100 as final concentration. […] Secondary antibody mix was prepared by diluting donkey anti-rabbit 800CW antibody (LICOR Biosciences) 1:1000 in SeaBlock buffer.
Assay procedure. Compound plate was diluted by addition of 19 μl/well compound dilution buffer (DMEM with Glutamax) using 125 μl 16-channel Matrix electronic pipette. 5 μl diluted compound was stamped from compound plate to assay plate containing A7r5 cells using Bravo (384-well head from Agilent) liquid handler and incubated at 37° C., 5% CO2 for 1 hour. Cells were fixed by addition of 5 μl 37% formaldehyde using 125 μl 16-channel Matrix electronic pipette and incubation for 20 min at room temperature. The assay plate was washed 5× with 60 μl/well wash buffer. […] Next, the assay plate was sealed, centrifuged at 1000 rpm for 5 seconds and incubated at 4° C. overnight on an orbital shaker at 300 rpm. […] The assay plate was centrifuged at 1000 rpm for 5 seconds and incubated on an orbital shaker at 300 rpm for 60 min at room temperature. Finally, assay plate was washed and wells left empty before measurement of 700 nm and 800 nm fluorescence intensities on Odyssey imager set at 4.0 mm focus offset.

[2] = target: human catalytic domain ROCK II protein (amino acids 5-554) with a N-terminal GST tag (Homo sapiens, UniProt O75116); experiment: biochemical
Chain of human catalytic domain ROCK II protein (amino acids 5-554) with a N-terminal GST tag (O75116 5-554): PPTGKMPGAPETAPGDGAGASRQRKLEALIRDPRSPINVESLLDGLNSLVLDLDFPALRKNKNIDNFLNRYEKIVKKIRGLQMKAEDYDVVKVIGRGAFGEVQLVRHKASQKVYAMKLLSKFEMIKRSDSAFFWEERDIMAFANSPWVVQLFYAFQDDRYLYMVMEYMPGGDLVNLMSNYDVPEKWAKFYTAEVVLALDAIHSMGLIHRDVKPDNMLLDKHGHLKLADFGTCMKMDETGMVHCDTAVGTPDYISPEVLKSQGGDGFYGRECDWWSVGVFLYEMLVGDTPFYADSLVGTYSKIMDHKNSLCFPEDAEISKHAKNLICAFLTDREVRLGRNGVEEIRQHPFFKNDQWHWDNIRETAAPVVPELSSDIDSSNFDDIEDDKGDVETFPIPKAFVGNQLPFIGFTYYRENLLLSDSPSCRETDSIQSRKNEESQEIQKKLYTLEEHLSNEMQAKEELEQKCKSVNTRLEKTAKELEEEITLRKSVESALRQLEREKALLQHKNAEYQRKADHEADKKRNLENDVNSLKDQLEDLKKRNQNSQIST

Structure (SMILES) | pIC50 ([1]; A7R5, 1 h) | pIC50 [2] | pIC50 [1]
COc1cccc([C@@H](C)OC(=O)N2CCN(c3ccnc(F)c3)C[C@H]2C)c1 [Example 2, (R)-1-(3-Methoxyphenyl)ethyl (R)-4-(2-fluoropyridin-4-yl)-2-methylpiperazine-1-carboxylate] | 5.77 | 7.51 | –
C[C@@H]1CN(c2ccnc(F)c2)CCN1C(=O)NCc1ccccc1Cl [Example 106] | 5.79 | 6.73 | –
C[C@@H](NC(=O)N1CCN(c2ccncc2F)[C@@H](C)C1)c1ccccc1Cl [Example 146] | 5.68 | 6.96 | –
COc1cccc([C@@H](C)NC(=O)N2CCN(c3ccncc3F)C[C@H]2C)c1 [Example 43, (R)-4-(3-Fluoropyridin-4-yl)-N—((R)-1-(3-methoxyphenyl)ethyl)-2-methylpiperazine-1-carboxamide] | 8.12 | 8.54 | –
C[C@@H]1CN(C(=O)N[C@H](C)c2ccccc2Cl)CCN1c1ccnc(F)c1 [Example 13, (R)—N—((R)-1-(2-Chlorophenyl)ethyl)-4-(2-fluoropyridin-4-yl)-3-methylpiperazine-1-carboxamide] | ≤ 5.30 | 5.32 | –
C[C@H](NC(=O)N1CCN(c2ccncc2F)C[C@H]1C)c1cccn2nccc12 [Example 62, (R)-4-(3-Fluoropyridin-4-yl)-2-methyl-N—((S)-1-(pyrazolo[1,5-a]pyridin-4-yl)ethyl)piperazine-1-carboxamide] | 6.31 | 6.97 | –
Cc1cnc2cccc([C@@H](C)NC(=O)N3CCN(c4ccncc4F)CC3)n12 [Example 34, (R)-4-(3-fluoropyridin-4-yl)-N-(1-(3-methylimidazo[1,2-a]pyridin-5-yl)ethyl)piperazine-1-carboxamide] | 6.98 | 8.12 | –
C[C@@H]1CN(c2ccncc2F)CCN1C(=O)N[C@H](C)c1cccc(OC(F)F)c1 [Example 136] | 7.27 | 8.42 | –
COc1cccc(CNC(=O)N2CCN(c3ccncc3F)[C@@H](C)C2)c1 [Example 150] | 6.15 | 7.70 | –
COc1ccc(F)c([C@@H](C)NC(=O)N2CCN(c3ccncc3F)C[C@H]2C)c1 [Example 134] | 6.97 | 8.18 | –
C[C@@H](NC(=O)N1CCN(c2ccncc2F)[C@@H](C)C1)c1cccc2c1CCO2 [Example 147] | 7.64 | 8.49 | –
[2H]C([2H])([2H])Oc1cccc([C@@H](C)NC(=O)N2CCN(c3ccnc(F)c3)C[C@H]2C)c1 [Example 115] | 6.86 | 8.09 | –
O=C(NCc1cccc(OC(F)F)c1)N1CCN(c2ccncc2F)CC1 [Example 129] | 5.45 | 7.07 | –
C[C@@H](NC(=O)N1CCN(c2ccnc(F)c2)[C@@H](C)C1)c1cccc2occc12 [Example 119] | 6.39 | 8.00 | –
COc1cc([C@@H](C)NC(=O)N2CCN(c3ccncc3F)C[C@H]2C)ccc1F [Example 53, (R)—N—((R)-1-(4-Fluoro-3-methoxyphenyl)ethyl)-4-(3-fluoropyridin-4-yl)-2-methylpiperazine-1-carboxamide] | 7.48 | 8.46 | –
C[C@@H]1CN(c2ccncc2F)CCN1C(=O)N[C@H](C)c1cccn2nccc12 [Example 61, (R)-4-(3-Fluoropyridin-4-yl)-2-methyl-N—((R)-1-(pyrazolo[1,5-a]pyridin-4-yl)ethyl)piperazine-1-carboxamide] | 7.86 | 8.62 | –
COc1cccc(CN2C[C@H]3CN(c4ccncc4F)CCN3C2=O)c1 [Example 87, (R)-7-(3-Fluoropyridin-4-yl)-2-(3-methoxybenzyl)hexahydroimidazo[1,5-a]pyrazin-3(2H)-one] | ≤ 5.30 | 5.83 | –
C[C@@H](NC(=O)N1CCN(c2ccncc2F)CC1)c1cccc2c1OC(F)(F)O2 [Example 36, (R)—N-(1-(2,2-Difluorobenzo[d][1,3]dioxol-4-yl)ethyl)-4-(3-fluoropyridin-4-yl)piperazine-1-carboxamide] | 5.84 | 7.06 | –

Structure (SMILES) | pIC50 ([1]; A7R5, 1 h) | pIC50 [2] | pIC50 [1]
C[C@@H]1CN(c2ccncc2F)CCN1C(=O)N[C@H](C)c1cccc2c1CC(C)(C)O2 [Example 57, (R)—N—((R)-1-(2,2-Dimethyl-2,3-dihydrobenzofuran-4-yl)ethyl)-4-(3-fluoropyridin-4-yl)-2-methylpiperazine-1-carboxamide] | 7.41 | 8.30 | –
C[C@@H]1CN(c2ccncc2F)CCN1C(=O)N[C@H](C)c1cccc2nn(C)cc12 [Example 71, (R)-4-(3-Fluoropyridin-4-yl)-2-methyl-N—((R)-1-(2-methyl-2H-indazol-4-yl)ethyl)piperazine-1-carboxamide] | 8.80 | 8.51 | –
C[C@@H]1CN(c2ccncc2F)CCN1C(=O)NCc1cccc(OC(F)F)c1 [Example 139] | 6.31 | 8.00 | –
COc1cccc([C@@H](C)OC(=O)N2CCN(c3ccncc3F)CC2)c1 [Example 17, (R)-1-(3-Methoxyphenyl)ethyl 4-(3-fluoropyridin-4-yl)piperazine-1-carboxylate] | 5.96 | 7.49 | –
COc1cccc([C@@H](C)NC(=O)N2CCN(c3ccncc3F)CC2)c1Cl [Example 20] | ≤ 5.30 | 6.24 | –
COc1cccc([C@@H](C)NC(=O)N2CCN(c3ccncc3F)C(=O)C2)c1 [Example 100, (R)-4-(3-Fluoropyridin-4-yl)-N-(1-(3-methoxyphenyl)ethyl)-3-oxopiperazine-1-carboxamide] | – | 5.67 | ≤ 5.30
C[C@@H]1CN(c2ccnc(F)c2)CCN1C(=O)NCc1cccc2nn(C)cc12 [Example 11, (R)-4-(2-Fluoropyridin-4-yl)-2-methyl-N-((2-methyl-2H-indazol-4-yl)methyl)piperazine-1-carboxamide] | 6.39 | 7.49 | –
C[C@@H](NC(=O)N1CCN(c2ccncc2F)[C@@H](C)C1)c1cccc(OC(F)F)c1 [Example 145] | 6.38 | 7.91 | –
C[C@@H]1CN(c2ccncc2F)CCN1C(=O)N[C@H](C)c1cccc2c1OCO2 [Example 68, (R)—N—((R)-1-(Benzo[d][1,3]dioxol-4-yl)ethyl)-4-(3-fluoropyridin-4-yl)-2-methylpiperazine-1-carboxamide] | 7.77 | 8.38 | –
C[C@@H](NC(=O)N1CCN(c2ccnc(F)c2)[C@@H](C)C1)c1cccc2c1CCO2 [Example 118] | 6.15 | 7.79 | –
C[C@@H](NC(=O)N1CCN(c2ccncc2F)CC1)c1cccc2c1OCO2 [Example 27, (R)—N-(1-(Benzo[d][1,3]dioxol-4-yl)ethyl)-4-(3-fluoropyridin-4-yl)piperazine-1-carboxamide] | 7.06 | 8.24 | –
COc1cccc([C@@H](C)NC(=O)N2C[C@@H]3C[C@H]2CN3c2ccncc2F)c1 [Example 99] | ≤ 5.30 | 5.51 | –
COc1cccc([C@@H](C)OC(=O)N2CCN(c3ccncc3F)C[C@H]2C)c1 [Example 46, (R)-1-(3-Methoxyphenyl)ethyl (R)-4-(3-fluoropyridin-4-yl)-2-methylpiperazine-1-carboxylate] | 6.53 | 8.41 | –
C[C@@H]1CN(c2ccncc2F)CCN1C(=O)N[C@H](C)c1cccc2c1OC(F)(F)O2 [Example 67, (R)—N—((R)-1-(2,2-Difluorobenzo[d][1,3]dioxol-4-yl)ethyl)-4-(3-fluoropyridin-4-yl)-2-methylpiperazine-1-carboxamide] | 6.61 | 8.00 | –
COc1cccc([C@@H](C)NC(=O)N2CCN(c3ccncc3F)[C@@H]3C[C@@H]32)c1 [Example 151] | 6.15 | 7.28 | –
COc1cccc(CN2C[C@@H]3CN(c4ccncc4F)CCN3C2=O)c1 [Example 86, (S)-7-(3-Fluoropyridin-4-yl)-2-(3-methoxybenzyl)hexahydroimidazo[1,5-a]pyrazin-3(2H)-one] | ≤ 5.30 | 5.49 | –
[2H]C([2H])([2H])Oc1cccc([C@H](NC(=O)N2CCN(c3ccnc(F)c3)C[C@H]2C)C([2H])([2H])[2H])c1 [Example 116] | 6.90 | 8.16 | –
[2H]C([2H])([2H])Oc1cccc([C@H](NC(=O)N2CCN(c3ccncc3F)CC2)C([2H])([2H])[2H])c1 [Example 131] | 6.82 | 8.10 | –
